Results as given in PubChem BioAssay AID328 (DTP/NCI, 2004).
Where “and” joins values, the source holds several entries; their conditions need not be identical. Equal entries are not always repeated. Inconclusive results and toxic doses are left out.

System: BDF1 mice, P388 leukemia ip, median survival T/C
Test: NCI In Vivo Anticancer Drug Screen. Data for tumor model P388 Leukemia (intraperitoneal) in B6D2F1 (BDF1) mice
Settings: endpoint: median survival time, higher = longer survival
Summary of the method: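 Compound-treated tumour-bearing mice were compared with vehicle-treated controls. Survival was recorded, and the value is the treated-group measurement divided by the control-group measurement (T/C).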

## COc1cccc2c1C(=O)c1c(O)c3c(c(O)c1C2=O)C[C@@](O)(C(C)=O)C[C@@H]3OC1CC(N)C(O)C(C)O1 (stereo partly specified)
dose: 0.03 mg/kg/injection, schedule: Q01DX010 (ip), vehicle: saline
  T/C: 108 % of control
dose: 0.06 mg/kg/injection, schedule: Q## X020 (ip), vehicle: saline
  T/C: 108 % of control
dose: 0.13 mg/kg/injection, schedule: Q01DX010 (ip), vehicle: saline
  T/C: 150 % of control
dose: 0.13 mg/kg/injection, schedule: Q03HX024 (ip), vehicle: saline
  T/C: 200 % of control
dose: 0.13 mg/kg/injection, schedule: Q## X020 (ip), vehicle: saline
  T/C: 100 % of control
dose: 0.21 mg/kg/injection, schedule: Q03HX024 (ip), vehicle: saline
  T/C: 210 % of control
dose: 0.21 mg/kg/injection, schedule: Q## X010 (ip), vehicle: saline
  T/C: 190 % of control
dose: 0.21 mg/kg/injection, schedule: Q## X020 (ip), vehicle: saline
  T/C: 195 % of control
dose: 0.25 mg/kg/injection, schedule: Q01DX009 (ip), vehicle: saline
  T/C: 208 % of control
dose: 0.25 mg/kg/injection, schedule: Q01DX010 (ip), vehicle: clinical formulation
  T/C: 159 % of control
dose: 0.36 mg/kg/injection, schedule: Q03HX024 (ip), vehicle: saline
  T/C: 205 % of control
dose: 0.36 mg/kg/injection, schedule: Q04DX003 (ip), vehicle: saline
  T/C: 180 % of control
dose: 0.36 mg/kg/injection, schedule: Q## X020 (ip), vehicle: saline
  T/C: 200 % of control
dose: 0.38 mg/kg/injection, schedule: Q01DX010 (ip), vehicle: saline
  T/C: 189 % of control
dose: 0.5 mg/kg/injection, schedule: Q01DX009 (ip), vehicle: saline
  T/C: 170 % of control
dose: 0.5 mg/kg/injection, schedule: Q01DX010 (ip), vehicle: clinical formulation
  T/C: 168 % of control
dose: 0.5 mg/kg/injection, schedule: Q01DX010 (ip), vehicle: water
  T/C: 175 % of control
dose: 0.5 mg/kg/injection, schedule: Q03HX008 (ip), vehicle: water
  T/C: 181 % of control
dose: 0.5 mg/kg/injection, schedule: Q06HX004 (ip), vehicle: water
  T/C: 190 % of control
dose: 0.5 mg/kg/injection, schedule: Q## X020 (ip), vehicle: saline
  T/C: 100 % of control and 207 % of control
dose: 0.6 mg/kg/injection, schedule: Q03HX024 (ip), vehicle: saline
  T/C: 235 % of control
dose: 0.6 mg/kg/injection, schedule: Q04DX003 (ip), vehicle: saline
  T/C: 215 % of control
dose: 0.6 mg/kg/injection, schedule: Q## X010 (ip), vehicle: saline
  T/C: 210 % of control
dose: 0.6 mg/kg/injection, schedule: Q## X020 (ip), vehicle: saline
  T/C: 190 % of control
dose: 0.63 mg/kg/injection, schedule: Q01DX010 (ip), vehicle: saline
  T/C: 195 % of control and 200 % of control
dose: 0.75 mg/kg/injection, schedule: Q01DX010 (ip), vehicle: saline
  T/C: 205 % of control
dose: 0.78 mg/kg/injection, schedule: Q04DX002 (ip), vehicle: saline
  T/C: 172 % of control
dose: 1.0 mg/kg/injection, schedule: Q01DX009 (ip), vehicle: saline
  T/C: 108 % of control
dose: 1.0 mg/kg/injection, schedule: Q01DX010 (ip), vehicle: clinical formulation
  T/C: 163 % of control
dose: 1.0 mg/kg/injection, schedule: Q01DX010 (ip), vehicle: water
  T/C: 195 % of control
dose: 1.0 mg/kg/injection, schedule: Q03HX008 (ip), vehicle: water
  T/C: 204 % of control
dose: 1.0 mg/kg/injection, schedule: Q03HX024 (ip), vehicle: saline
  T/C: 115 % of control
dose: 1.0 mg/kg/injection, schedule: Q04DX003 (ip), vehicle: water
  T/C: 115 % of control
dose: 1.0 mg/kg/injection, schedule: Q06HX004 (ip), vehicle: water
  T/C: 190 % of control
dose: 1.0 mg/kg/injection, schedule: Q## X010 (ip), vehicle: saline
  T/C: 200 % of control
dose: 1.0 mg/kg/injection, schedule: Q## X020 (ip), vehicle: saline
  T/C: 287 % of control and 108 % of control and 209 % of control
dose: 1.25 mg/kg/injection, schedule: Q01DX009 (ip), vehicle: water
  T/C: 176 % of control
dose: 1.25 mg/kg/injection, schedule: Q01DX010 (ip), vehicle: saline
  T/C: 227 % of control and 215 % of control
dose: 1.3 mg/kg/injection, schedule: Q01DX009 (ip), vehicle: clinical formulation
  T/C: 231 % of control
dose: 1.5 mg/kg/injection, schedule: Q01DX010 (ip), vehicle: saline
  T/C: 210 % of control
dose: 1.56 mg/kg/injection, schedule: Q01DX009 (ip), vehicle: water
  T/C: 157 % of control and 196 % of control
dose: 1.56 mg/kg/injection, schedule: Q04DX002 (ip), vehicle: saline
  T/C: 209 % of control
dose: 1.7 mg/kg/injection, schedule: Q04DX003 (ip), vehicle: saline
  T/C: 225 % of control
dose: 1.7 mg/kg/injection, schedule: Q## X010 (ip), vehicle: saline
  T/C: 165 % of control
dose: 1.7 mg/kg/injection, schedule: Q## X020 (ip), vehicle: saline
  T/C: 180 % of control
dose: 1.8 mg/kg/injection, schedule: Q01DX009 (ip), vehicle: water
  T/C: 161 % of control
dose: 2.0 mg/kg/injection, schedule: Q01DX009 (ip), vehicle: clinical formulation
  T/C: 257 % of control
dose: 2.0 mg/kg/injection, schedule: Q01DX010 (ip), vehicle: clinical formulation
  T/C: 172 % of control
dose: 2.0 mg/kg/injection, schedule: Q01DX010 (ip), vehicle: water
  T/C: 95 % of control
dose: 2.0 mg/kg/injection, schedule: Q03HX008 (ip), vehicle: water
  T/C: 95 % of control
dose: 2.0 mg/kg/injection, schedule: Q06HX004 (ip), vehicle: water
  T/C: 195 % of control
dose: 2.5 mg/kg/injection, schedule: Q01DX001 (ip), vehicle: saline
  T/C: 109 % of control and 215 % of control
dose: 2.5 mg/kg/injection, schedule: Q01DX009 (ip), vehicle: water
  T/C: 97 % of control
dose: 2.9 mg/kg/injection, schedule: Q04DX003 (ip), vehicle: saline
  T/C: 200 % of control
dose: 3.0 mg/kg/injection, schedule: Q01DX009 (ip), vehicle: clinical formulation
  T/C: 157 % of control
dose: 3.0 mg/kg/injection, schedule: Q01DX009 (ip), vehicle: water
  T/C: 173 % of control
dose: 3.0 mg/kg/injection, schedule: Q01DX010 (ip), vehicle: saline
  T/C: 189 % of control
dose: 3.13 mg/kg/injection, schedule: Q01DX009 (ip), vehicle: water
  T/C: 90 % of control
dose: 3.13 mg/kg/injection, schedule: Q04DX002 (ip), vehicle: saline
  T/C: 169 % of control and 181 % of control
dose: 4.0 mg/kg/injection, schedule: Q01DX010 (ip), vehicle: clinical formulation
  T/C: 104 % of control
dose: 4.0 mg/kg/injection, schedule: Q01DX010 (ip), vehicle: water
  T/C: 90 % of control
dose: 4.5 mg/kg/injection, schedule: Q01DX009 (ip), vehicle: clinical formulation
  T/C: 100 % of control
dose: 5.0 mg/kg/injection, schedule: Q01DX010 (ip), vehicle: saline
  T/C: 120 % of control
dose: 6.25 mg/kg/injection, schedule: Q04DX002 (ip), vehicle: saline
  T/C: 100 % of control
dose: 13.33 mg/kg/injection, schedule: Q04DX003 (ip), vehicle: water
  T/C: 100 % of control and 207 % of control
dose: 16.0 mg/kg/injection, schedule: Q04DX009 (ip), vehicle: water
  T/C: 96 % of control
dose: 78.0 micrograms/kg/injection, schedule: Q01DX010 (ip), vehicle: saline
  T/C: 165 % of control
dose: 125.0 micrograms/kg/injection, schedule: Q01DX010 (ip), vehicle: clinical formulation
  T/C: 150 % of control
dose: 156.0 micrograms/kg/injection, schedule: Q01DX010 (ip), vehicle: saline
  T/C: 185 % of control
dose: 250.0 micrograms/kg/injection, schedule: Q01DX010 (ip), vehicle: clinical formulation
  T/C: 183 % of control
dose: 313.0 micrograms/kg/injection, schedule: Q01DX010 (ip), vehicle: saline
  T/C: 185 % of control
dose: 500.0 micrograms/kg/injection, schedule: Q01DX010 (ip), vehicle: clinical formulation
  T/C: 195 % of control
dose: 625.0 micrograms/kg/injection, schedule: Q01DX010 (ip), vehicle: saline
  T/C: 200 % of control
dose: 1300.0 micrograms/kg/injection, schedule: Q04DX003 (ip), vehicle: water
  T/C: 174 % of control
dose: 2160.0 micrograms/kg/injection, schedule: Q04DX003 (ip), vehicle: water
  T/C: 162 % of control
dose: 3600.0 micrograms/kg/injection, schedule: Q04DX003 (ip), vehicle: water
  T/C: 117 % of control
